Reference: patent US8933011B2, “Treatment of preterm labor with toll-like receptor 9 antagonists” (The Provost, Fellows and Scholars of the College of the …, priority 2008, dated 2015)
Entries after “also recorded” stand apart in the source; their conditions may differ.

Biological target: T1, Toll-like Receptor 9 (Homo sapiens, UniProt Q9NR96)
T1 construct: endogenous in cells; host or cells: Namalwa cells
T1 sequence (Q9NR96 26-1032): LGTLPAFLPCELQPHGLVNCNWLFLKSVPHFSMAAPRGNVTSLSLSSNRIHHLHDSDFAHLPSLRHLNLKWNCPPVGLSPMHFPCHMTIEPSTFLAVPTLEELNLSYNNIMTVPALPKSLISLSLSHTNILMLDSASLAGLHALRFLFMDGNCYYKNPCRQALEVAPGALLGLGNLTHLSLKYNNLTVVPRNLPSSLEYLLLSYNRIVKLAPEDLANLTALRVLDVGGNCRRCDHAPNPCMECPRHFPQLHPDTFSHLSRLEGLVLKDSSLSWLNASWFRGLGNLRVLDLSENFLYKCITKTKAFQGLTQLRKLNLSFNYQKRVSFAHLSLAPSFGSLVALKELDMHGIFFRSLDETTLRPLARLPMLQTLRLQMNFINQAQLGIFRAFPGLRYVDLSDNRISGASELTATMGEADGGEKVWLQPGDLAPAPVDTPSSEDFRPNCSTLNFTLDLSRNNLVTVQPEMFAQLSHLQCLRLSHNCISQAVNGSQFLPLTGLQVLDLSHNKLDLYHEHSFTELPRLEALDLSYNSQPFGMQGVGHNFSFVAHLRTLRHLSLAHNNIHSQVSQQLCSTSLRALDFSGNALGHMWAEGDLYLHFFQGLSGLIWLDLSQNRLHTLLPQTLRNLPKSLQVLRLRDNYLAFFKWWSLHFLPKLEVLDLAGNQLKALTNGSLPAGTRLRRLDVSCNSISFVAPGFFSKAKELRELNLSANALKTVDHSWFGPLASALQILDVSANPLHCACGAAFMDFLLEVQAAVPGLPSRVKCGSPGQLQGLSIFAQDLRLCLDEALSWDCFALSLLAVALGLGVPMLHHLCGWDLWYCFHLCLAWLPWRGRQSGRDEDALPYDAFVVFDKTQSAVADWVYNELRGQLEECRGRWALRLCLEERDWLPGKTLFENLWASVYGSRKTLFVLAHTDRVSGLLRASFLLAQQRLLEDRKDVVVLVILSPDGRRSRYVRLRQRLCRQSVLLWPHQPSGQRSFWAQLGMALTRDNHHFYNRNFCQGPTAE
Assay: Inhibition of fetal DNA induced I-kappa-B degradation in Namalwa cells by TLR9 inhibitors
Format: cell-based
Conditions: Namalwa cells pre-treated at 75 μM, then fetal DNA 3.0 μg/ml
Description: Inhibition of Toll-like Receptor 9 was carried out using the Toll-like Receptor 9 antagonist cholorquine and a synthetic inhibitory oligodinucleotide (TTAGGG) which was obtained from InvivoGen. […] The recommended concentration from package inserts was to use a 10-100 microM concentration. […] The same fetal DNA (3.0 μg/ml) was then used to stimulate cells over time in minutes as described above.
Namalwa cells (2.0×10^7 cells/ml) were also incubated with synthetic inhibitory TLR-9 oligonucleotide (ODN+) at an 8:1 ratio of oligodinucleotide (ODN) to ligand. The package insert recommended a 1-10:1 ratio of inhibitory oligodinucleotide (ODN) to stimulatory oligodinucleotide (ODN). […] This was followed by stimulation with the same purchased fetal DNA at 3.0 μg/ml using the method described hereinbefore.
In FIGS. 5A and 6A Namalwa cells (2.0×10^7 cells/ml) were incubated with the inhibitory TLR-9 oligonucleotide (ODN+) in an 8:1 ratio of ODN to ligand. This was followed by stimulation with fetal DNA at a concentration of 3.0 μg/ml.
In FIGS. 5B and 6B, the TLR9 antagonist cholorquine was used to pre-treat Namalwa cells at 2.0×10^7 cells/ml at a concentration of 75 μM. Fetal DNA (3.0 microg/ml) was then used to stimulate cells over time in minutes.

SMILES: CCN(CC)CCCC(C)Nc1ccnc2cc(Cl)ccc12 (centres unmarked) [chloroquine, N′-(7-chloroquinolin-4-yl)-N,N-diethyl-pentane-1,4-diamine]
- inhibition of fetal DNA induced I-kappa-B degradation: can also inhibit this response; also recorded: Induction of I-kappa-B degradation was inhibited; also recorded: blocked the effect of fetal DNA on I-kappaB degradation
- inhibition of fetal DNA induced I-kappa-B degradation (listed as Chloroquine): blocked I-kappa-B degradation; also recorded: blocked 1-kappa-B degradation
